Reference: patent publication US5124342A, “4-hydroxythiazoles as 5-lipoxygenase inhibitors” (Abbott Laboratories, priority 1990, dated 1992)

Target: T1, 5-lipoxygenase (Rattus norvegicus, UniProt P12527)
T1 construct: homogenized RBL-1 cells; endogenous in cells; host or cells: RBL-1 cells (20,000×g supernatant of homogenate)
T1 sequence (P12527 1-673): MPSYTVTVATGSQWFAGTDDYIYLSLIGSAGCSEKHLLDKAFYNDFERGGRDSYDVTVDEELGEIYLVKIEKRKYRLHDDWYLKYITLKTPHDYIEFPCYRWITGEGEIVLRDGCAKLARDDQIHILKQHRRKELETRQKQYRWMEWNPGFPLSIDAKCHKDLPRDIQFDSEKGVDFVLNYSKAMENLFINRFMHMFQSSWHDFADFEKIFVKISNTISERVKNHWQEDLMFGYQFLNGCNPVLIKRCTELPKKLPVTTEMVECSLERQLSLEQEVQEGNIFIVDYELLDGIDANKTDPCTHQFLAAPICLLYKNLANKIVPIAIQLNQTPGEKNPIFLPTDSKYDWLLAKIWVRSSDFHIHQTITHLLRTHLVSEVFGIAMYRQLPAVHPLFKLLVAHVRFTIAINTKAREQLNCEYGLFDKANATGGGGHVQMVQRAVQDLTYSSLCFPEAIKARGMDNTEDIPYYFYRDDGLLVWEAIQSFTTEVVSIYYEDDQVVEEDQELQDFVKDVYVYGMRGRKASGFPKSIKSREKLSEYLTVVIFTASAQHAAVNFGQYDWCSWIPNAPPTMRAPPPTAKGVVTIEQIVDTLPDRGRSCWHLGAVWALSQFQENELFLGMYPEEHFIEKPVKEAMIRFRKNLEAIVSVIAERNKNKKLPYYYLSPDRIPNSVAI
Test: 5-Lipoxygenase inhibition, 20,000×g supernatant of homogenized RBL-1 cells, radiolabeled arachidonic acid
Type: biochemical
Conditions: for IC50: 5-lipoxygenase from RBL-1 20,000 × g supernatant, read-out: IC50 (95% CL)
Experimental: Proc., Fed. Am. Soc. Exp. Biol. 1984, 43, […]. Reactions were initiated by the addition of radiolabeled arachidonic acid and terminated by acidification and ether extraction. Reaction products were separated from nonconvented substrate by thin layer chromatography and measured by liquid scintillation spectroscopy. Inhibition of 5-lipoxygenase activity was calculated as the ratio of the amounts of product formed in the presence and absence of inhibitor.

[1] = RBL-1 20,000 × g supernatant, read-out: % Inhibition at μM Conc.

IC50	SMILES	other results
0.96 µM	Cc1sc(-c2ccccc2)nc1O [Example 31, 2-Phenyl-4-hydroxy-5-methylthiazole]	
0.58 µM	CCCc1sc(-c2ccccc2)nc1O [Example 36, 2-Phenyl-4-hydroxy-5-propylthiazole]	
0.69 µM	Oc1nc(-c2ccccc2)sc1CCc1ccccc1 [Example 38, 2-Phenyl-4-hydroxy-5-phenethylthiazole]	
0.91 µM	CCCc1sc(-c2ccccc2)nc1OC(=O)OCC [Example 54, 2-Phenyl-[4-(carboethoxy)oxy]-5-propylthiazole]	
0.83 µM	CCc1sc(-c2ccccc2)nc1O [Example 35, 2-Phenyl-4-hydroxy-5-ethylthiazole]	
0.63 µM	Cc1ccc(-c2nc(O)c(C)s2)cc1 [Example 33, 2-(4-Methylphenyl)-4-hydroxy-5-methylthiazole]	
0.5 µM	Cc1sc(-c2ccccc2F)nc1O [Example 24, 2-(2-Fluorophenyl)-4-hydroxy-5-methylthiazole]	
0.71 µM	CCOC(=O)c1ccc(-c2nc(O)c(C)s2)cc1 [Example 23, 2-(4-Carboethoxyphenyl)-4-hydroxy-5-methylthiazole]	
0.53 µM	Oc1nc(-c2ccccc2)sc1-c1ccccc1 [Example 34, 2-Phenyl-4-hydroxy-5-phenylthiazole]	
0.66 µM	Cc1sc(-c2cccc(F)c2)nc1O [Example 25, 2-(3-Fluorophenyl)-4-hydroxy-5-methylthiazole]	
0.7 µM	Cc1sc(-c2ccc(C#N)cc2)nc1O [Example 20, 2-(4-Cyanophenyl)-4-hydroxy-5-methylthiazole]	
0.82 µM	Cc1cccc(-c2nc(O)c(C)s2)c1Cl [Example 29, 2-(2-Chloro-3-methylphenyl)-4-hydroxy-5-methylthiazole]	
0.48 µM	Cc1sc(-c2cccc(Br)c2)nc1O [Example 26, 2-(3-Bromophenyl)-4-hydroxy-5-methylthiazole]	
0.75 µM	CCOC(=O)CCC(=O)Oc1nc(-c2ccccc2)sc1-c1ccccc1 [Example 53, 2-Phenyl-4-ethyl succinyloxy-5-phenylthiazole]	

Continued, molecule first:

SMILES	IC50	other results
Cc1sc(-c2ccc(C(=O)OCCc3ccccc3)cc2)nc1O [Example 13, 2-(4-Carbo-2-phenethoxyphenyl)-4-hydroxy-5-methylthiazole]	0.98 µM	
COC(=O)c1ccc(-c2nc(OC(C)=O)c(C)s2)cc1 [Example 60, 2-(4-Carbomethoxyphenyl)-4-acetoxy-5-methylthiazole]	0.69 µM	
COc1ccc(-c2nc(O)c(-c3ccccc3)s2)cc1 [Example 43, 2-(4-Methoxyphenyl)-4-hydroxy-5-phenylthiazole]		inhibition at 0.3 µM [1]: 88%
CC(=O)c1ccc(-c2nc(O)c(C)s2)cc1 [Example 18, 2-(4-Acetylphenyl)-4-hydroxy-5-methylthiazole]	0.9 µM	
Oc1nc(-c2cccnc2)sc1-c1ccccc1 [Example 41, 2-(3-Pyridyl)-4-hydroxy-5-phenylthiazole]		inhibition at 0.3 µM [1]: 83%
Oc1nc(-c2ccc(F)cc2)sc1-c1ccccc1 [Example 47, 2-(4-Fluorophenyl)-4-hydroxy-5-phenylthiazole]		inhibition at 0.4 µM [1]: 82%
CC(=O)Oc1nc(-c2ccc(C)cc2)sc1-c1ccccc1 [Example 62, 2-(4-Methylphenyl)-4-acetoxy-5-phenylthiazole]		inhibition at 0.5 µM (at 0.5 μM, RBL-1 20,000 × g supernatant, read-out: % Inhibition at μM Conc.): 93%
COc1ccc2nc(-c3nc(O)c(C)s3)sc2c1 [Example 6, 2-[2-(6-Methoxybenzothiazolyl)]-4-hydroxy-5-methylthiazole]	0.89 µM	
CC(=O)Oc1nc(-c2ccc(-c3ccccc3)cc2)sc1-c1ccccc1 [Example 65, 2-Biphenyl-4-acetoxy-5-phenylthiazole]		inhibition at 0.75 µM (at 0.75 μM, RBL-1 20,000 × g supernatant, read-out: % Inhibition at μM Conc.): 82%
CC(=O)Oc1nc(-c2ccccc2)sc1-c1ccccc1 [Example 50, 2-Phenyl-4-acetoxy-5-phenylthiazole]		inhibition at 0.4 µM [1]: 88%
CCCCCc1nc(OC(C)=O)c(CCC)s1 [Example 68, 2-Pentyl-4-acetoxy-5-propylthiazole]		inhibition at 1 µM (at 1 μM, RBL-1 20,000 × g supernatant, read-out: % Inhibition at μM Conc.): 79%
CCOc1ccc(-c2nc(O)c(-c3ccccc3)s2)cc1 [Example 48, 2-(4-Ethoxyphenyl)-4-hydroxy-5-phenylthiazole]		inhibition at 0.4 µM [1]: 77%
Cc1sc(-c2ccc(Cl)cc2)nc1O [Example 11, 2-(4-Chlorophenyl)-4-hydroxy-5-methylthiazole]	0.57 µM	
Cc1ccc(-c2nc(O)c(-c3ccccc3)s2)cc1 [Example 46, 2-(4-Methylphenyl)-4-hydroxy-5-phenylthiazole]		inhibition at 0.4 µM [1]: 91%
Cc1sc(-c2ccc(F)cc2)nc1O [Example 9, 2-(4-Fluorophenyl)-4-hydroxy-5-methylthiazole]	0.35 µM	
Cc1sc(-c2ccc(Br)cc2)nc1O [Example 10, 2-(4-Bromophenyl)-4-hydroxy-5-methylthiazole]	0.51 µM	
CCCCc1sc(-c2ccccc2)nc1OC(C)=O [Example 67, 2-Phenyl-4-acetoxy-5-butylthiazole]	0.95 µM	
COC(=O)c1ccc(-c2nc(O)c(C)s2)cc1 [Example 17, 2-(4-Carbomethoxyphenyl)-4-hydroxy-5-methylthiazole]	0.88 µM	
